Source: patent US10590086B2, “Pharmaceutical compound” (IOmet Pharma Ltd., priority 2014, dated 2020)

Experiments:
[1] = target: T1, IDO (Homo sapiens, UniProt P14902); test: SKOV3 kynurenine cell-based assay (IDO induced by IFN-γ); set-up: IDO expression was induced in the SKOV3 cells by the addition of 500 ng/ml IFN-γ; endogenous in cells; host or cells: SKOV3 (human ovarian adenocarcinoma), induced with IFN-γ; conditions: 48 hours, read-out: SKOV3 Kynurenine cell based assay pIC50 (converted)
T1 sequence (P14902 whole entry): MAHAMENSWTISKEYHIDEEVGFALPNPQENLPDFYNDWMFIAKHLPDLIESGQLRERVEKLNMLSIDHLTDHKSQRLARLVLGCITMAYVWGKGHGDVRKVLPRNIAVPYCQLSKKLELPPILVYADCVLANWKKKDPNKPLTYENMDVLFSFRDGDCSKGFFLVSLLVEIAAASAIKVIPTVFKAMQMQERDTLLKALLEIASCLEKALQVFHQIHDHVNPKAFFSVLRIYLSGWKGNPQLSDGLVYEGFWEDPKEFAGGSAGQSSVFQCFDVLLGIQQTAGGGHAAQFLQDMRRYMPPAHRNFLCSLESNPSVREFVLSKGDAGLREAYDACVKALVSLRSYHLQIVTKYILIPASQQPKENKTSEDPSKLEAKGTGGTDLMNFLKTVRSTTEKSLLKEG
How it was run: (§1)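 Kynurenine in the culture supernatant was measured by absorbance at 490 nm after 5 minutes with Ehrlich's reagent. Cells had been exposed ±compound for 48 hours at 37 °C in phenol red-free RPMI, 10% FCS, 2 mM L-glutamine and 500 μM L-tryptophan. Seeding was 30,000/well for A172 (TDO) and 40,000/well for SKOV3 (IDO, induced with 500 ng/ml IFN-γ).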

[2] = target: T2, TDO (Homo sapiens, UniProt P48775); test: A172 kynurenine cell-based assay; set-up: This assay utilised cancer cells which expressed either TDO or IDO; endogenous in cells; host or cells: A172 (human glioblastoma); conditions: A172 human glioblastoma cells, 48 hours, read-out: A172 Kynurenine cell based assay pIC50 (converted)
T2 sequence (P48775 whole entry): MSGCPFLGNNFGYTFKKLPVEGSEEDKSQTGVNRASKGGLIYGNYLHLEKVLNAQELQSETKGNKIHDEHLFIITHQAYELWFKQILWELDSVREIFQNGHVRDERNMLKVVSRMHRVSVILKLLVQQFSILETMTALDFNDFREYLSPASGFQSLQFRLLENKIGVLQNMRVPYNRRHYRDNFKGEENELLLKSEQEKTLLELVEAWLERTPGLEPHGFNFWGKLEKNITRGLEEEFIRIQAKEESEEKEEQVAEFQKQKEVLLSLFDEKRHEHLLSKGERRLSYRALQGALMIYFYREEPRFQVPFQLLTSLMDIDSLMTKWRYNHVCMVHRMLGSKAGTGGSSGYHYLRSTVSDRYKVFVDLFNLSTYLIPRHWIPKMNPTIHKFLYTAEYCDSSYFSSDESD
How it was run: as §1

[3] = target: T2, TDO; test: hTDO biochemical coupled assay; conditions: 330 μM L-tryptophan, read-out: hTDO biochemical assay pIC50 (converted)
[4] = target: T1, IDO; test: hIDO biochemical coupled assay; conditions: 45 μM L-tryptophan, read-out: hIDO biochemical assay pIC50 (converted)
[5] = SKOV3 human ovarian adenocarcinoma cells, 500 ng/ml IFN-γ, 500 μM L-tryptophan

IC50 [1, 5] [µM]	IC50 ([2]; 500 μM L-tryptophan) [µM]	IC50 ([3]; 17 minutes, room temperature) [µM]	IC50 ([4]; 17 minutes, room temperature) [µM]	IC50 ([1]; SKOV3 cells, IDO induced by 500 ng/ml IFN-γ) [µM]	IC50 [2] [µM]	IC50 [3] [µM]	IC50 [4] [µM]	Structure (SMILES)
3.24 to 31.6	< 3.16	< 3.16	> 100					CC(=O)Nc1ccc(-c2cc(Cl)cc3[nH]ncc23)cc1 [Compound 246]
3.24 to 31.6	< 3.16	< 3.16	3.24 to 31.6					CNC(=O)C1CCN(c2cc(Cl)cc3[nH]ncc23)CC1 [Compound 249]
3.24 to 31.6	< 3.16	< 3.16	32.4 to 100					CC(=O)NC1CCN(c2cc(Cl)cc3[nH]ncc23)CC1 [Compound 250]
3.24 to 31.6	< 3.16	< 3.16	< 3.16					CC(=O)N(C)C1CCN(c2cc(Cl)cc3[nH]ncc23)CC1 [Compound 251]
32.4 to 100	< 3.16	< 3.16	> 100					Cc1nc2c(n1C)CCN(c1cc(Cl)cc3[nH]ncc13)C2 [Compound 252]
3.24 to 31.6	< 3.16	3.24 to 31.6	> 100					CN(C)C(=O)c1ccc(-c2cc(Cl)cc3[nH]ncc23)cc1 [Compound 255]
3.24 to 31.6	< 3.16	< 3.16	> 100					NC(=O)c1ccc(-c2cc(Cl)cc3[nH]ncc23)cc1 [Compound 256]
3.24 to 31.6	< 3.16	< 3.16	> 100					CNC(=O)c1ccc(-c2cc(Cl)cc3[nH]ncc23)cc1 [Compound 257]
32.4 to 100	< 3.16	< 3.16	> 100					CC(C)(O)c1cc(Cl)cc2[nH]ncc12 [Compound 259]
3.24 to 31.6	< 3.16	< 3.16	3.24 to 31.6					CC(C)C(O)c1cc(Cl)cc2[nH]ncc12 (stereo not drawn) [Compound 260]
< 3.16	< 3.16	< 3.16	3.24 to 31.6					CS(=O)(=O)c1ccc(-c2cc(Cl)cc3[nH]ncc23)cc1Cl [Compound 264]
3.24 to 31.6	< 3.16	< 3.16	3.24 to 31.6					CS(=O)(=O)c1ccc(-c2cc(Cl)cc3[nH]ncc23)cc1F [Compound 265]
3.24 to 31.6	< 3.16	< 3.16	> 100					COc1cc(S(C)(=O)=O)ccc1-c1cc(Cl)cc2[nH]ncc12 [Compound 266]
3.24 to 31.6	< 3.16	< 3.16	3.24 to 31.6					O=C1NCC2(CCN(c3cc(Cl)cc4[nH]ncc34)CC2)N1 [Compound 267]
3.24 to 31.6	< 3.16	< 3.16	32.4 to 100					Cc1cc(S(C)(=O)=O)ccc1-c1cc(Cl)cc2[nH]ncc12 [Compound 268]
3.24 to 31.6	< 3.16	< 3.16	> 100					NS(=O)(=O)c1ccc(-c2cc(Cl)cc3[nH]ncc23)cc1 [Compound 269]
32.4 to 100	< 3.16	< 3.16	> 100					OC(c1ccccc1)c1cc(Cl)cc2[nH]ncc12 (stereo not drawn) [Compound 271]
3.24 to 31.6	< 3.16	< 3.16	32.4 to 100					CC(C)CC(O)c1cc(Cl)cc2[nH]ncc12 (stereo not drawn) [Compound 272]
3.24 to 31.6	< 3.16	< 3.16	3.24 to 31.6	9.55	0.0135	0.0851	11.7	OC1(c2cc(Cl)cc3[nH]ncc23)CCCCC1 [Compound 273, 1-(6-chloro-1H-indazol-4-yl)cyclohexanol]
3.24 to 31.6	< 3.16	< 3.16	> 100					CN(C)S(=O)(=O)c1ccc(-c2cc(Cl)cc3[nH]ncc23)cc1 [Compound 277]
